Source: the CheMixHub ionic liquid set

Experiment: xn = mol fraction of the nth substance listed

OC[C@@H](O)[C@@H](O)[C@H](O)[C@@H](O)CO + CCCCCCCCCCCCCCCC[N+](C)(C)C.[Br-] + O
viscosity [mPa·s], 100 kPa
Conditions	298.15 K	308.15 K	318.15 K
x1 = 0.0007313, x2 = 1.441e-05	0.921	0.762	–
x1 = 0.0008985, x2 = 7.2e-06	0.923	–	0.634
x1 = 0.001226, x2 = 1.44e-05	–	0.774	–
x1 = 0.001311, x2 = 2.16e-05	0.942	0.779	0.644
x1 = 0.001618, x2 = 1.439e-05	0.949	–	0.649
x1 = 0.001661, x2 = 2.159e-05	0.954	0.788	0.651
x1 = 0.001736, x2 = 7.2e-06	0.949	–	0.651
x1 = 0.001867, x2 = 7.19e-06	–	0.788	0.654
x1 = 0.001983, x2 = 2.158e-05	0.964	–	0.658
x1 = 0.00199, x2 = 1.439e-05	0.96	0.793	0.657
x1 = 0.00225, x2 = 2.157e-05	0.973	0.803	0.664
x1 = 0.002345, x2 = 7.19e-06	0.968	0.799	0.663
x1 = 0.002374, x2 = 1.438e-05	0.972	0.803	0.665
x1 = 0.002657, x2 = 1.438e-05	0.981	0.81	0.67
x1 = 0.002734, x2 = 7.19e-06	0.98	0.809	0.671
x1 = 0.002734, x2 = 2.156e-05	0.989	0.816	0.674

CC(=O)[O-].CCCCC[N+](CCCCC)(CCCCC)CCCCC + CCCCCCCCCCCCOS(=O)(=O)[O-].[Na+] + O
viscosity [mPa·s], 100 kPa
Conditions	x2 = 1.81e-06, x1 = 0.0001802	x2 = 3.62e-06, x1 = 0.0001802	x2 = 5.42e-06, x1 = 0.0001802	x2 = 7.23e-06, x1 = 0.0001802	x2 = 9.04e-06, x1 = 0.0001802	x2 = 1.085e-05, x1 = 0.0001802	x2 = 1.266e-05, x1 = 0.0001802	x2 = 1.446e-05, x1 = 0.0001802	x2 = 1.627e-05, x1 = 0.0001802	x2 = 1.808e-05, x1 = 0.0001802
293.15 K	1.002	1.003	1.005	1.005	1.007	1.007	1.007	1.007	1.007	1.008
298.15 K	0.89	0.893	0.894	0.896	0.898	0.9	0.902	0.902	0.904	0.904
303.15 K	0.784	0.786	0.789	0.792	0.793	0.796	0.796	0.796	0.798	0.796
308.15 K	0.701	0.703	0.704	0.706	0.707	0.707	0.708	0.708	0.709	0.709
313.15 K	0.636	0.638	0.641	0.643	0.645	0.646	0.646	0.647	0.648	0.648
318.15 K	0.587	0.587	0.589	0.59	0.591	0.593	0.593	0.597	0.598	0.599

CC(=O)[O-].CCCCC[N+](CCCCC)(CCCCC)CCCCC + CCCCCCCCCCCC[N+](C)(C)C.[Br-] + O
viscosity [mPa·s], 100 kPa
Conditions	x2 = 5.424e-05, x1 = 0.0001802	x2 = 0.0001085, x1 = 0.0001801	x2 = 0.0001627, x1 = 0.0001801	x2 = 0.0002169, x1 = 0.0001801	x2 = 0.0002711, x1 = 0.0001801	x2 = 0.0003254, x1 = 0.0001801	x2 = 0.0003796, x1 = 0.0001801	x2 = 0.0004338, x1 = 0.0001801	x2 = 0.000488, x1 = 0.0001801	x2 = 0.0005421, x1 = 0.0001801
293.15 K	1.029	1.031	1.033	1.034	1.034	1.035	1.035	1.036	1.036	1.036
298.15 K	0.921	0.924	0.928	0.928	0.929	0.929	0.93	0.93	0.931	0.931
303.15 K	0.811	0.813	0.816	0.819	0.822	0.825	0.825	0.828	0.829	0.83
308.15 K	0.728	0.731	0.731	0.733	0.734	0.737	0.741	0.745	0.746	0.749
313.15 K	0.659	0.661	0.664	0.666	0.667	0.669	0.669	0.67	0.671	0.671
318.15 K	0.609	0.609	0.611	0.612	0.613	0.615	0.615	0.619	0.62	0.621

O=P([O-])(O)O.[Na+] + CCCCCCCCCCCC[N+](C)(C)C.[Br-] + O
298.15 K, 101 kPa
Conditions	electrical conductivity [S/m]
x2 = 0, x1 = 0.0001802	0.1015
x2 = 0, x1 = 0.001799	0.7566
x2 = 3.79e-06, x1 = 0.0001802	0.1031
x2 = 5.64e-06, x1 = 0.001799	0.7559
x2 = 7.76e-06, x1 = 0.0001802	0.1049
x2 = 1.11e-05, x1 = 0.001799	0.7567
x2 = 1.317e-05, x1 = 0.0001802	0.1075
x2 = 1.858e-05, x1 = 0.0001802	0.1101
x2 = 1.893e-05, x1 = 0.001799	0.7581
x2 = 2.345e-05, x1 = 0.0001802	0.1124
x2 = 2.603e-05, x1 = 0.001799	0.7597
x2 = 3.427e-05, x1 = 0.0001802	0.1175
x2 = 3.55e-05, x1 = 0.001799	0.7617
x2 = 4.401e-05, x1 = 0.0001802	0.1222
x2 = 4.714e-05, x1 = 0.001799	0.7635
x2 = 5.411e-05, x1 = 0.0001802	0.127
x2 = 5.843e-05, x1 = 0.001799	0.766
x2 = 6.457e-05, x1 = 0.0001802	0.132
x2 = 6.953e-05, x1 = 0.001799	0.7685
x2 = 7.467e-05, x1 = 0.0001801	0.1368
x2 = 8.082e-05, x1 = 0.001799	0.771
x2 = 8.477e-05, x1 = 0.0001801	0.1416
x2 = 9.228e-05, x1 = 0.001799	0.7738
x2 = 9.541e-05, x1 = 0.0001801	0.1467
x2 = 0.0001034, x1 = 0.001799	0.777
x2 = 0.0001055, x1 = 0.0001801	0.1516
x2 = 0.0001145, x1 = 0.001799	0.7803
x2 = 0.0001154, x1 = 0.0001801	0.1563
x2 = 0.0001255, x1 = 0.0001801	0.161
x2 = 0.0001258, x1 = 0.001799	0.7836
x2 = 0.0001363, x1 = 0.001799	0.7867
x2 = 0.0001371, x1 = 0.0001801	0.1667
x2 = 0.0001469, x1 = 0.001798	0.7899
x2 = 0.0001488, x1 = 0.0001801	0.1723
x2 = 0.0001578, x1 = 0.001798	0.793
x2 = 0.0001602, x1 = 0.0001801	0.1777
x2 = 0.0001687, x1 = 0.001798	0.7962
x2 = 0.0001715, x1 = 0.0001801	0.1831
x2 = 0.0001796, x1 = 0.001798	0.7996
x2 = 0.0001829, x1 = 0.0001801	0.1884
x2 = 0.0001905, x1 = 0.001798	0.8028
x2 = 0.0001941, x1 = 0.0001801	0.1937
x2 = 0.0002011, x1 = 0.001798	0.8057
x2 = 0.0002054, x1 = 0.0001801	0.1991
x2 = 0.0002117, x1 = 0.001798	0.8081
x2 = 0.0002166, x1 = 0.0001801	0.2043
x2 = 0.0002224, x1 = 0.001798	0.8103
x2 = 0.0002276, x1 = 0.0001801	0.2096
x2 = 0.0002326, x1 = 0.001798	0.8125
x2 = 0.0002384, x1 = 0.0001801	0.2146
x2 = 0.0002431, x1 = 0.001798	0.8147
x2 = 0.0002492, x1 = 0.0001801	0.2196
x2 = 0.0002537, x1 = 0.001798	0.8169
x2 = 0.0002601, x1 = 0.0001801	0.2239
x2 = 0.0002641, x1 = 0.001798	0.8191
x2 = 0.0002692, x1 = 0.0001801	0.2266
x2 = 0.0002744, x1 = 0.001798	0.8212
x2 = 0.0002795, x1 = 0.0001801	0.2291
x2 = 0.0002848, x1 = 0.001798	0.8234
x2 = 0.0002918, x1 = 0.0001801	0.2316
x2 = 0.0003062, x1 = 0.0001801	0.234
x2 = 0.0003222, x1 = 0.0001801	0.2367
x2 = 0.0003394, x1 = 0.0001801	0.2394
x2 = 0.000366, x1 = 0.0001801	0.2432
x2 = 0.0003922, x1 = 0.0001801	0.2467

CC[n+]1ccn(C)c1.O=S(=O)([N-]S(=O)(=O)C(F)(F)F)C(F)(F)F + CCCCCCCCCCCC[n+]1ccn(C)c1.O=S(=O)([N-]S(=O)(=O)C(F)(F)F)C(F)(F)F
100 kPa, x2 = 0
Conditions	viscosity [mPa·s]
293 K	36
313 K	18

c1ccccc1 + CCCCCCCC[n+]1ccc2ccccc2c1.O=S(=O)([N-]S(=O)(=O)C(F)(F)F)C(F)(F)F
101 kPa, x1 = 1
Conditions	viscosity [mPa·s]
308.15 K	0.53
328.15 K	0.42

CO/N=C(\C(=O)N[C@@H]1C(=O)N2C(C(=O)[O-])=C(CSc3nc(=O)c(=O)[n-]n3C)CS[C@H]12)c1csc(N)n1.[Na+].[Na+] + CCCCCCCC[n+]1ccc(C)cc1.[Br-] + O
viscosity [mPa·s], 100 kPa
Conditions	x1 = 0.0003495, x2 = 0	x1 = 0.0008732, x2 = 0	x1 = 0.001391, x2 = 0	x1 = 0.002502, x2 = 0	x1 = 0.00312, x2 = 0	x1 = 0.003888, x2 = 0	x1 = 0.004767, x2 = 0	x1 = 0.005484, x2 = 0
288.15 K	1.196	1.273	1.365	1.604	1.745	1.964	2.205	2.45
293.15 K	1.053	1.12	1.2	1.399	1.527	1.701	1.918	2.122
298.15 K	0.935	0.994	1.062	1.231	1.348	1.495	1.674	1.858
303.15 K	0.829	0.885	0.945	1.1	1.195	1.323	1.48	1.638
308.15 K	0.744	0.794	0.849	0.982	1.07	1.184	1.322	1.455

CO + CCCCCCCCn1cc[n+](C)c1.[Cl-]
Conditions	viscosity [mPa·s]
313.15 K, 101 kPa, x1 = 1	0.444

CO/N=C(\C(=O)N[C@@H]1C(=O)N2C(C(=O)[O-])=C(CSc3nc(=O)c(=O)[n-]n3C)CS[C@H]12)c1csc(N)n1.[Na+].[Na+] + CCCCCC[n+]1ccc(C)cc1.[Br-] + O
viscosity [mPa·s], 100 kPa
Conditions	x1 = 0.0003495, x2 = 0	x1 = 0.0008732, x2 = 0	x1 = 0.001391, x2 = 0	x1 = 0.002502, x2 = 0	x1 = 0.00312, x2 = 0	x1 = 0.003888, x2 = 0	x1 = 0.004767, x2 = 0	x1 = 0.005484, x2 = 0
288.15 K	1.196	1.273	1.365	1.604	1.745	1.964	2.205	2.45
293.15 K	1.053	1.12	1.2	1.399	1.527	1.701	1.918	2.122
298.15 K	0.935	0.994	1.062	1.231	1.348	1.495	1.674	1.858
303.15 K	0.829	0.885	0.945	1.1	1.195	1.323	1.48	1.638
308.15 K	0.744	0.794	0.849	0.982	1.07	1.184	1.322	1.455
